# Source: patent US20080269293A1, “PYRAZOLE DERIVATIVES AS ANTI-PLATELET AND ANTI-THROMBOTIC AGENTS” (Pfizer Inc., priority 2006, published 2008)
# Biological target: T1, platelet P2Y1 receptor (Homo sapiens, UniProt P47900)
# T1 construct: expressed in transfected cells
# Experiment: P2Y1 receptor binding assay ([β-33P]-2-thiomethyl ADP)
# Conditions: binding of 0.3 nM [β-33P]-2-thiomethyl ADP, hP2Y1 expressing 132N1 cell membrane, 25° C., 60 minutes
# Procedure: Conducting P2Y, Receptor Binding Assay
# [β−^33P]-2-thiomethyl ADP (2100 Ci/mmol) was purchased from PerkinElmer, Protease Inhibitors Complete, EDTA-free, was purchased from Roche, and ADP (Adenosine diphosphate), MRS2179, and 2-thiomethy ADP (2-Me-S-ADP) were purchased from Sigma Chemical Co.
# Binding of 0.3 nM [β-^33P]-2-thiomethyl ADP to platelet P2Y1 receptor in 132N1 cell membrane was carried out in triplicate at 25° C. with 96 well plate (Corning, 3365). Nonspecific binding was defined as binding in the presence of 1 μM of 2-Me-S-ADP. One […] of dimethyl sulfoxide (DMSO) or 1 μL of DMSO (Sigma-Aldrich, 472301) containing a test compound diluted to final assay concentrations of 0.1 nM to 1 mM were placed into each well of a Corning 96-well plate. A volume of 60 μL of buffer: 50 mM Tris pH 7.5 (Sigma, T-2194), 1 mM EDTA (Gibco, 15575-038) and 100 mM NaCl (Gibco, 200740-011) containing 0.3 nM [β-^33P]-2-thiomethyl ADP 40 μL of hP2Y1 expressing 132N1 cell membrane prep was added to each well. After incubation on shaker for 60 minutes, The contents of the wells are filtered and washed 8 times with Tomtec Cell Harvester through UniFilter 96, GF/B plates (PerkinElmer, 6005177) Forty five microliters […] Scintillation cocktail (Ultima-Flo-M) was added into each well and plates counted on a Trilux Microbeta Counter.
# • 1. Add 1 μL DMSO or compounds into the wells according to the protocol. • 2. Add 60 μL incubation buffer with [β-^33P]-2-thiomethyl ADP into each well. • 3. Add 40 μL hP2Y1 expressing 132N1 cell membrance prep. Incubate 60 minutes on top of the shaker (IKA Shutter MTS4). • 4. Filter and wash 8× with Tomtec Cell Harvester through UniFilter GF/B plates (PerkinElmer, 6005177). • 5. Add 45 μL scintillation cocktail into each well and plates counted on a Trilux Microbeta Counter.
# T1 sequence (P47900 whole entry): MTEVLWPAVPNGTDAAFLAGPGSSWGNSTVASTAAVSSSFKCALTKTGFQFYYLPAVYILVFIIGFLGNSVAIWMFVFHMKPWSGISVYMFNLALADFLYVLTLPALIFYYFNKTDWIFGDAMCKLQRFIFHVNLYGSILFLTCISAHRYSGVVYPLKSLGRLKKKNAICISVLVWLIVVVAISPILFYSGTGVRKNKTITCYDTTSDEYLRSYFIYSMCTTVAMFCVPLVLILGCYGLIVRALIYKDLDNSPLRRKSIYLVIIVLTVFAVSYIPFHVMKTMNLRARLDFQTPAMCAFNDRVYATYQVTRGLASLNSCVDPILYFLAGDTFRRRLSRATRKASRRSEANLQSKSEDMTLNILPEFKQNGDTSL
row,Compound,IC50 [nM]
1,"CCc1ccccc1-n1nc(C)cc1Oc1ccccc1NC(=O)Nc1ccc(OC(F)(F)F)cc1Cl [Example 94, 1-(2-chloro-4-(trifluoromethoxy)phenyl)-3-(2-(1-(2-ethylphenyl)-3-methyl-1H-pyrazol-5-yloxy)phenyl)urea]",8780
2,"Cc1cc(Oc2ccccc2NC(=O)Nc2ccc(CO)cc2)n(-c2ccccc2Cl)n1 [Example 87, 1-{2-[2-(2-Chloro-phenyl)-5-methyl-2H-pyrazol-3-yloxy]-phenyl}-3-(4-hydroxymethyl-phenyl)-urea]",> 10000
3,"CCc1ccccc1-n1nc(C)cc1Oc1ccccc1NC(=O)Nc1ccc(F)cc1F [Example 106, 1-(2,4-difluorophenyl)-3-(2-(1-(2-ethylphenyl)-3-methyl-1H-pyrazol-5-yloxy)phenyl)urea]",287
4,"Cc1cc(Oc2ccccc2NC(=O)Nc2ccc(OC(F)(F)F)cc2)n(-c2ccccc2Br)n1 [Example 125, 1-(2-(1-(2-bromophenyl)-3-methyl-1H-pyrazol-5-yloxy)phenyl)-3-(4-(trifluoromethoxy)phenyl)urea]",182
5,"CC(C)c1cc(Oc2ccccc2NC(=O)Nc2ccc(OC(F)(F)F)cc2)n(-c2ccccc2)n1 [Example 29, 1-[2-(5-Isopropyl-2-phenyl-2H-pyrazol-3-yloxy)-phenyl]-3-(4-trifluoromethoxy-phenyl)-urea]",> 10000
6,"Cc1cc(Oc2ccccc2NC(=O)Nc2ccc(C(C)(C)C(=O)O)cc2)n(-c2ccccc2Cl)n1 [Example 84, 2-[4-(3-{2-[2-(2-Chloro-phenyl)-5-methyl-2H-pyrazol-3-yloxy]-phenyl}-ureido)-phenyl]-2-methyl-propionic acid]",> 10000
7,CSc1ccc(NC(=O)Nc2ccccc2Oc2cc(C)nn2-c2ccccc2)cc1 [Example 39],2220
8,"Cc1cc(Oc2ccccc2NC(=O)Nc2ccc(C3CCCC3)cc2)n(-c2ccccc2Cl)n1 [Example 124, 1-(2-(1-(2-chlorophenyl)-3-methyl-1H-pyrazol-5-yloxy)phenyl)-3-(4-cyclopentylphenyl)urea]",32
9,Cc1cc(Oc2ccccc2NC(=O)Nc2c(C)cccc2C(C)(C)C)n(-c2ccccc2)n1 [Example 77],> 10000
10,"O=C(Nc1ccc(OC(F)(F)F)cc1)Nc1ccccc1Oc1ccnn1-c1ccccc1 [Example 24, 1-[2-(2-Phenyl-2H-pyrazol-3-yloxy)-phenyl]-3-(4-trifluoromethoxy-phenyl)-urea]",306
11,"Cc1cc(Oc2ccccc2NC(=O)Nc2ccc(OC(F)(F)F)cc2)n(-c2cc(Cl)ccc2Cl)n1 [Example 98, 1-(2-(1-(2,5-dichlorophenyl)-3-methyl-1H-pyrazol-5-yloxy)phenyl)-3-(4-(trifluoromethoxy)phenyl)urea]",68
12,Cc1cc(Oc2ccc(C#N)cc2NC(=O)Nc2ccc(OC(F)(F)F)cc2)n(-c2ccccc2)n1 [Example 32],> 10000
13,Cc1cc(Oc2ccccc2NC(=O)Nc2cccc(F)c2)n(-c2ccccc2)n1 [Example 38],1910
14,Cc1ccc(NC(=O)Nc2ccccc2Oc2cc(C)nn2-c2ccccc2)c(C)c1 [Example 60],> 10000
15,"CCc1ccccc1-n1nc(C)cc1Oc1ccccc1NC(=O)Nc1ccc(C2CCCCC2)cc1 [Example 108, 1-(4-cyclohexylphenyl)-3-(2-(1-(2-ethylphenyl)-3-methyl-1H-pyrazol-5-yloxy)phenyl)urea]",12
16,"Cc1cc(Oc2ccccc2NC(=O)Nc2ccc(-c3ccccc3)cc2)n(-c2ccccc2Cl)n1 [Example 96, 1-(4-(phenyl)-phenyl)-3-(2-(1-(2-chlorophenyl)-3-methyl-1H-pyrazol-5-yloxy)phenyl)urea]",176
17,"CCCc1ccccc1-n1nc(C)cc1Oc1ccccc1NC(=O)Nc1ccc(OC(F)(F)F)cc1 [Example 119, 1-(2-(1-(2-propylphenyl)-3-methyl-1H-pyrazol-5-yloxy)phenyl)-3-(4-(trifluoromethoxy)phenyl)urea]",88
18,Cc1cc(Oc2ccccc2NC(=O)Nc2ccc(OC(F)(F)F)cc2)n(-c2ccccc2F)n1 [Example 9],253
19,"CCc1ccccc1-n1nc(C)cc1Oc1ccccc1NC(=O)Nc1ccc(OC)cc1 [Example 103, 1-(2-(1-(2-ethylphenyl)-3-methyl-1H-pyrazol-5-yloxy)phenyl)-3-(4-methoxyphenyl)urea]",564
20,Cc1cc(Oc2cc(C)c(F)cc2NC(=O)Nc2ccc(OC(F)(F)F)cc2)n(-c2ccccc2)n1 [Example 30],1240
21,"CC(=O)c1ccc(NC(=O)Nc2ccccc2Oc2cc(C)nn2-c2ccccc2Cl)cc1 [Example 118, 1-(4-acetylphenyl)-3-(2-(1-(2-chlorophenyl)-3-methyl-1H-pyrazol-5-yloxy)phenyl)urea]",> 3330
22,"CCc1ccccc1-n1nc(C)cc1Oc1ccccc1NC(=O)Nc1ccc(-c2ccccc2)cc1 [Example 91, 1-(4-(phenyl)phenyl)-3-(2-(1-(2-ethylphenyl)-3-methyl-1H-pyrazol-5-yloxy)phenyl)urea]",87
23,Cc1cc(C)cc(NC(=O)Nc2ccccc2Oc2cc(C)nn2-c2ccccc2)c1 [Example 43],7560
24,Cc1ccc(C)c(NC(=O)Nc2ccccc2Oc2cc(C)nn2-c2ccccc2)c1 [Example 79],> 10000
25,"CCc1ccccc1-n1nc(C)cc1Oc1ccccc1NC(=O)Nc1ccc(CN2CCCCC2)cc1 [Example 105, 1-(2-(1-(2-ethylphenyl)-3-methyl-1H-pyrazol-5-yloxy)phenyl)-3-(4-(piperidin-1-ylmethyl)phenyl)urea]",> 10000
26,Cc1ccc(-n2nc(C)cc2Oc2ccccc2NC(=O)Nc2ccc(OC(F)(F)F)cc2)cc1 [Example 10],188

# The remaining lines, values ahead:
row,IC50 [nM],Compound
1,1120,"COC(C)c1ccc(NC(=O)Nc2ccccc2Oc2cc(C)nn2-c2ccccc2Cl)cc1 (centres unmarked) [Example 116, 1-(2-(1-(2-chlorophenyl)-3-methyl-1H-pyrazol-5-yloxy)phenyl)-3-(4-(1-methoxyethyl)phenyl)urea]"
2,> 10000,"Cc1cc(Oc2ccccc2NC(=O)Nc2ccc(-n3cccn3)cc2)n(-c2ccccc2Cl)n1 [Example 99, 1-(4-(1H-pyrazol-1-yl)phenyl)-3-(2-(1-(2-chlorophenyl)-3-methyl-1H-pyrazol-5-yloxy)phenyl)urea]"
3,> 10000,"CCc1cc(Oc2ccccc2NC(=O)Nc2ccc(OC(F)(F)F)cc2)n(-c2ccccc2)n1 [Example 28, 1-[2-(5-Ethyl-2-phenyl-2H-pyrazol-3-yloxy)-phenyl]-3-(4-trifluoromethoxy-phenyl)-urea]"
4,89,"Cc1cc(Oc2ccccc2NC(=O)Nc2ccc(OC(F)(F)F)cc2)n(-c2ccccc2Cl)n1 [Example 2, 1-{2-[2-(2-Chloro-phenyl)-5-methyl-2H-pyrazol-3-yloxy]-phenyl}-3-(4-trifluoromethoxy-phenyl)-urea]"
5,763,"Cc1cc(Oc2ccccc2NC(=O)Nc2ccc(C3CCOCC3)cc2)n(-c2ccccc2Cl)n1 [Example 128, 1-(2-(1-(2-chlorophenyl)-3-methyl-1H-pyrazol-5-yloxy)phenyl)-3-(4-(tetrahydro-2H-pyran-4-yl)phenyl)urea]"
6,1300,Cc1cc(Oc2ccccc2NC(=O)Nc2cccc(C(F)(F)F)c2)n(-c2ccccc2)n1 [Example 36]
7,122,Cc1cc(Oc2ccccc2NC(=O)Nc2ccc(OC(F)(F)F)cc2)n(-c2cccc(Cl)c2)n1 [Example 7]
8,272,"Cc1cc(Oc2ncccc2NC(=O)Nc2ccc(C(C)(C)C)cc2)n(-c2ccccc2)n1 [Example 21, 1-(4-tert-Butyl-phenyl)-3-[2-(5-methyl-2-phenyl-2H-pyrazol-3-yloxy)-pyridin-3-yl]-urea]"
9,48,CCc1ccccc1-n1nc(C)cc1Oc1ccccc1NC(=O)Nc1ccc(OC(F)(F)F)cc1 [Example 3]
10,150,Cc1cc(Oc2ccccc2NC(=O)Nc2ccc(OC(F)(F)F)cc2)n(-c2ccc(Cl)cc2Cl)n1 [Example 20]
11,5060,"COC(=O)c1ccc(NC(=O)Nc2ccccc2Oc2cc(C)nn2-c2ccccc2Cl)cc1 [Example 86, 4-(3-{2-[2-(2-Chloro-phenyl)-5-methyl-2H-pyrazol-3-yloxy]-phenyl}-ureido)-benzoic acid methyl ester]"
12,> 10000,COc1cc(NC(=O)Nc2ccccc2Oc2cc(C)nn2-c2ccccc2)cc(OC)c1 [Example 80]
13,307,Cc1cc(Oc2ccccc2NC(=O)Nc2ccc(OC(F)(F)F)cc2)n(-c2cccc(F)c2)n1 [Example 17]
14,128,Cc1cc(Oc2ccccc2NC(=O)Nc2ccc(OC(F)(F)F)cc2)n(-c2ccccc2C(F)(F)F)n1 [Example 8]
15,1190,"CCc1ccccc1-n1nc(C)cc1Oc1ccccc1NC(=O)Nc1ccc(-c2cnco2)cc1 [Example 102, 1-(2-(1-(2-ethylphenyl)-3-methyl-1H-pyrazol-5-yloxy)phenyl)-3-(4-(oxazol-5-yl)phenyl)urea]"
